Laboratory results published in publication PMC6478789, “A chemical toolbox for the study of bromodomains and epigenetic signaling” (Nature Communications, 2019).

Key:
HAT1 = molecular target: T1, HAT1 (Homo sapiens, UniProt O14929); assay: Histone acetyltransferase (HAT) activity assay; type: biochemical; settings: read-out: HATs Activity (%);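 note: HAT selectivity screen of BRD probe compounds, enzyme activity in % measured with compound at 1 µM and 10 µM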
T1 sequence (O14929 1-419): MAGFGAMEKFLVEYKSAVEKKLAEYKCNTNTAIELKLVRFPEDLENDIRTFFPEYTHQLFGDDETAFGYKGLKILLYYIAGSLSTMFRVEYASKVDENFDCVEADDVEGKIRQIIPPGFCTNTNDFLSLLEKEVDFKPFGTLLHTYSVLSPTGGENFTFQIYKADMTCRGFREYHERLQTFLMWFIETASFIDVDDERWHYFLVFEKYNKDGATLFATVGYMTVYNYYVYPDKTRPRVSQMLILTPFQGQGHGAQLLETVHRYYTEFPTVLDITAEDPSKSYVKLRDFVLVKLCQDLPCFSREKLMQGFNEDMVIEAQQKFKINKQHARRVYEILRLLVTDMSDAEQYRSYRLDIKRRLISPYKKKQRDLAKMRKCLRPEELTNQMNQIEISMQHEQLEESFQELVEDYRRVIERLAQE

MYST1 = molecular target: T2, MYST1 (Homo sapiens, UniProt Q9H7Z6); assay: Histone acetyltransferase (HAT) activity assay; type: biochemical; settings: read-out: HATs Activity (%);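 note: selectivity screen across a panel of histone acetyltransferases, with compounds tested at 1 and 10 µM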
T2 sequence (Q9H7Z6 1-458): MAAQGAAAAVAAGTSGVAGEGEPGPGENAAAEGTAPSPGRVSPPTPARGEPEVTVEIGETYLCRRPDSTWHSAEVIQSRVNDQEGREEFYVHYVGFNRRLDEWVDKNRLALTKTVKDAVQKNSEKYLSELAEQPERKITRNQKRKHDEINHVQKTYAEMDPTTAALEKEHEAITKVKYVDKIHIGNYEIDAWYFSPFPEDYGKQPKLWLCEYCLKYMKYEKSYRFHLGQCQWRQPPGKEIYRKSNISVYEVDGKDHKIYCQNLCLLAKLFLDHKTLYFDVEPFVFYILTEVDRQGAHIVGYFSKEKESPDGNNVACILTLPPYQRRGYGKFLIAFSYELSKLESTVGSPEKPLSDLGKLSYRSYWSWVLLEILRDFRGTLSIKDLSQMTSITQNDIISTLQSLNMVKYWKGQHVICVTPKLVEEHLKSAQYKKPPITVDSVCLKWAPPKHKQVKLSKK

MYST3 = MYST3 (Homo sapiens, UniProt Q92794); assay: Histone acetyltransferase (HAT) activity assay; type: biochemical; settings: read-out: HATs Activity (%);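 note: selectivity screen of bromodomain probe compounds across a panel of histone acetyltransferases, read out as enzyme activity in %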
EP300 = EP300 (Homo sapiens, UniProt Q09472); assay: Histone acetyltransferase (HAT) activity assay; type: biochemical; settings: read-out: HATs Activity (%);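 note: selectivity screen of bromodomain probe compounds against histone acetyltransferases, with enzyme activity given in percent for compounds tested at 1 and 10 µM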
[1] = tested on: BT-549 and MDA-MB436 cell lines; assay: JQ1 dose-response with or without BAY-876; type: cell-based, human; settings: with or without 3 μM BAY-876, 7 days
Method: and error bars denote standard deviation from three independent assays. p value computed using a one-way ANOVA test; ****** p<0.001. e) The colony formation of indicated cells with 3μM indicated chemical probes treatment for 14 days. f) MDA-MB436 cells were treated with 3μM indicated chemical probes for 5 days. Cell apoptotic activity was quantified by the fluorescent caspase 3/7 active objects. Graph indicate mean and error bars denote standard deviation from four independent assays. p value computed using one-way ANOVA t test; ****
Graph indicate mean and error bars denote standard deviation from four independent assays. p value computed using a two- stage step-up Benjamini t test i) Dose dependent
Graph indicate mean and error bars denote standard deviation from four independent assay s. p value computed using a two - stage step -up Benjamini t test j) Immunoblot based quantification of H3K14ac abundance using total H3 as a control in MDA-MB-436 cells following control or 3 μM of the indicated chemical probes during a 5-day treatment. Graph indicate mean and error bars denote standard deviation from three independent assays. p value computed using a two-stage step-up Benjamini t test; **p<0.01; *** p<0.001. k) Immunoblot based quantification of H3K14ac abundance using total […]

ten TNBC cell lines = assay: High-throughput screening of bromodomain inhibitors in TNBC panel (confluency); type: cell-based, human; settings: 3 μM, 7 days
Method: Fig. 6 BRD inhibitors leverage metabolic adaptations induced by glucose transporter I (GLUT1) inhibition in TNBC. a BRD inhibitor screening across ten TNBC cell lines. Cells were treated with indicated BRD inhibitors at 3 μM for 7 days. Confluency was measured using an IncuCyte ZOOM live cell imaging device. Data shown are mean ± s.d. of n = 4 independent cell culture grown and treated cells. A two-sided Student’s t test was used to derive the p-values. b SLC2A1 gene expression in the The Cancer Genome Atlas (TCGA) breast datasets. The cohorts were divided into TNBCs (red) and non-TNBCs (blue) according to PAM50 classification. Gene expression is reported as median-centered expression log2 values. The number of patients (n) per group is indicated. P-values were determined using a Wilcoxon's rank-sum test. c Glucose uptake in MDA-MB-436 cells in response to BAY-876 treatment relative to vehicle. MDA-MB-436 cells were treated with dimethyl sulfoxide (DMSO) or 3 µM BAY-876 for 5 days. […]
TNBC cell lines were seeded in sterile, transparent 384-well plates at 500 cells per well in 50 µl media. […] Cell confluency at 7 days was evaluated using an Incucyte ZOOM live cell imaging device (Essen Bioscence) and analyzed with the Incucyte ZOOM (2016A) software based on phase contrast image.

C2C12 myoblast cells = assay: Gene-expression analysis (microarray); type: cell-based, mouse; settings: 12 h; 500 nM (JQ1, LP-99), 2 μM (GSK2801, BAZ2-ICR, BSP)
Method: Total RNA was extracted using the PureLink^TM RNA mini kit (Thermo Fisher Scientific, 12183018A) as per the manufacturer’s protocol.
RNA samples were processed for oligonucleotide microarray profiling utilizing the Affymetrix Clariom^TM S Assay HT mouse. Quality controls were carried out in R (v.3.5.1) and Bioconductor[71] (v.3.7) using the arrayQualityMetrics package (v.3.36.0) taking into account array intensity distributions, distance between arrays, and variance mean dependence. Principal component analysis was used to decide which arrays to process together. After quality control, arrays were corrected for background, normalized, and log2-transformed together using the rma function of the oligo package (v.1.44)[73] in R/Bioconductor. Probes with small variance across samples were filtered out using the genefilter (v.1.62) package, employing the nsFilter function and an interquartile range cut-off of 0.28 (or >log(1.2), determined by the midpoint of the shortest interval containing half of the data). This reduced the number of probes of the Clariom^TM S array from 29,129 to 14,538.
Differential expression analysis was conducted using the limma package (v.3.36.2)[74], employing a linear model followed by empirical Bayesian analysis to determine differential expression between not-treated and treated samples.

GCN5L2 = GCN5L2 (Homo sapiens, UniProt Q92830); assay: Histone acetyltransferase (HAT) activity assay; type: biochemical; settings: read-out: HATs Activity (%);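 note: selectivity screen of BRD probe compounds across a panel of histone acetyltransferases, HAT activity in % with compound at 1 or 10 µM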
three TNBC lines = assay: Combinatorial screen of BRD inhibitors with or without BAY-876 (confluency); type: cell-based, human; settings: 3 μM probe + 3 μM BAY-876
Method: Fig. 6 BRD inhibitors leverage metabolic adaptations induced by glucose transporter I (GLUT1) inhibition in TNBC. a BRD inhibitor screening across ten TNBC cell lines. Cells were treated with indicated BRD inhibitors at 3 μM for 7 days. Confluency was measured using an IncuCyte ZOOM live cell imaging device. Data shown are mean ± s.d. of n = 4 independent cell culture grown and treated cells. A two-sided Student’s t test was used to derive the p-values. b SLC2A1 gene expression in the The Cancer Genome Atlas (TCGA) breast datasets. The cohorts were divided into TNBCs (red) and non-TNBCs (blue) according to PAM50 classification. Gene expression is reported as median-centered expression log2 values. The number of patients (n) per group is indicated. P-values were determined using a Wilcoxon's rank-sum test. c Glucose uptake in MDA-MB-436 cells in response to BAY-876 treatment relative to vehicle. MDA-MB-436 cells were treated with dimethyl sulfoxide (DMSO) or 3 µM BAY-876 for 5 days. Graph indicates mean, error bars denote s.d. from three independent assays and p-value was computed using the Benjamini-Hochberg t test; ***p < 0.001. d Effects of BAY-876 treatment on the intracellular acetyl-CoA level. Graph indicates mean, error bars denote s.d. from three independent assays and p-value was computed using the Benjamini-Hochberg t test; ***p < 0.001. e Effects of BAY-876 treatment on intracellular NAD^+/NADH level. Graph indicates the mean, error bars denote s.d. from three independent assays and p-value computed using the Benjamini-Hochberg t test; **p < 0.01. f Immunoblot analysis of H3 and H4 acetylation in MDA-MB-436 cells before and after BAY-876 treatment. P-value computed using the Benjamini-Hochberg t test; ***p < 0.001. g Cell growth effects of BAY-876 treatment on three representative cell lines. n.s. not significant. h Combinatorial screening of BRD inhibitors with or without 3 μM BAY-876 across ten TNBC cell lines. Cell confluency was obtained from the endpoint Incucyte scanning. (Left) Heatmap of the combinatorial screening results; (Right) Cell confluency after treatment with three potential BRDi candidates at 3 μM in the presence or absence of 3 μM BAY-876 in three representative cell lines. Graph indicates mean, error bars denote s.d. from three independent assays and p-values were computed using the Benjamini-Hochberg t test; **p < 0.01; ***p < 0.001. Raw data images are available in Supplementary Fig. 4
TNBC cell lines were seeded in sterile, transparent 384-well plates at 500 cells per well in 50 µl media. Chemical probes were delivered in dimethyl sulfoxide (DMSO). Cell confluency at 7 days was evaluated using an Incucyte ZOOM live cell imaging device (Essen Bioscence) and analyzed with the Incucyte ZOOM (2016A) software based on phase contrast image.

EP300, sequence (Q09472 whole entry, species assumed): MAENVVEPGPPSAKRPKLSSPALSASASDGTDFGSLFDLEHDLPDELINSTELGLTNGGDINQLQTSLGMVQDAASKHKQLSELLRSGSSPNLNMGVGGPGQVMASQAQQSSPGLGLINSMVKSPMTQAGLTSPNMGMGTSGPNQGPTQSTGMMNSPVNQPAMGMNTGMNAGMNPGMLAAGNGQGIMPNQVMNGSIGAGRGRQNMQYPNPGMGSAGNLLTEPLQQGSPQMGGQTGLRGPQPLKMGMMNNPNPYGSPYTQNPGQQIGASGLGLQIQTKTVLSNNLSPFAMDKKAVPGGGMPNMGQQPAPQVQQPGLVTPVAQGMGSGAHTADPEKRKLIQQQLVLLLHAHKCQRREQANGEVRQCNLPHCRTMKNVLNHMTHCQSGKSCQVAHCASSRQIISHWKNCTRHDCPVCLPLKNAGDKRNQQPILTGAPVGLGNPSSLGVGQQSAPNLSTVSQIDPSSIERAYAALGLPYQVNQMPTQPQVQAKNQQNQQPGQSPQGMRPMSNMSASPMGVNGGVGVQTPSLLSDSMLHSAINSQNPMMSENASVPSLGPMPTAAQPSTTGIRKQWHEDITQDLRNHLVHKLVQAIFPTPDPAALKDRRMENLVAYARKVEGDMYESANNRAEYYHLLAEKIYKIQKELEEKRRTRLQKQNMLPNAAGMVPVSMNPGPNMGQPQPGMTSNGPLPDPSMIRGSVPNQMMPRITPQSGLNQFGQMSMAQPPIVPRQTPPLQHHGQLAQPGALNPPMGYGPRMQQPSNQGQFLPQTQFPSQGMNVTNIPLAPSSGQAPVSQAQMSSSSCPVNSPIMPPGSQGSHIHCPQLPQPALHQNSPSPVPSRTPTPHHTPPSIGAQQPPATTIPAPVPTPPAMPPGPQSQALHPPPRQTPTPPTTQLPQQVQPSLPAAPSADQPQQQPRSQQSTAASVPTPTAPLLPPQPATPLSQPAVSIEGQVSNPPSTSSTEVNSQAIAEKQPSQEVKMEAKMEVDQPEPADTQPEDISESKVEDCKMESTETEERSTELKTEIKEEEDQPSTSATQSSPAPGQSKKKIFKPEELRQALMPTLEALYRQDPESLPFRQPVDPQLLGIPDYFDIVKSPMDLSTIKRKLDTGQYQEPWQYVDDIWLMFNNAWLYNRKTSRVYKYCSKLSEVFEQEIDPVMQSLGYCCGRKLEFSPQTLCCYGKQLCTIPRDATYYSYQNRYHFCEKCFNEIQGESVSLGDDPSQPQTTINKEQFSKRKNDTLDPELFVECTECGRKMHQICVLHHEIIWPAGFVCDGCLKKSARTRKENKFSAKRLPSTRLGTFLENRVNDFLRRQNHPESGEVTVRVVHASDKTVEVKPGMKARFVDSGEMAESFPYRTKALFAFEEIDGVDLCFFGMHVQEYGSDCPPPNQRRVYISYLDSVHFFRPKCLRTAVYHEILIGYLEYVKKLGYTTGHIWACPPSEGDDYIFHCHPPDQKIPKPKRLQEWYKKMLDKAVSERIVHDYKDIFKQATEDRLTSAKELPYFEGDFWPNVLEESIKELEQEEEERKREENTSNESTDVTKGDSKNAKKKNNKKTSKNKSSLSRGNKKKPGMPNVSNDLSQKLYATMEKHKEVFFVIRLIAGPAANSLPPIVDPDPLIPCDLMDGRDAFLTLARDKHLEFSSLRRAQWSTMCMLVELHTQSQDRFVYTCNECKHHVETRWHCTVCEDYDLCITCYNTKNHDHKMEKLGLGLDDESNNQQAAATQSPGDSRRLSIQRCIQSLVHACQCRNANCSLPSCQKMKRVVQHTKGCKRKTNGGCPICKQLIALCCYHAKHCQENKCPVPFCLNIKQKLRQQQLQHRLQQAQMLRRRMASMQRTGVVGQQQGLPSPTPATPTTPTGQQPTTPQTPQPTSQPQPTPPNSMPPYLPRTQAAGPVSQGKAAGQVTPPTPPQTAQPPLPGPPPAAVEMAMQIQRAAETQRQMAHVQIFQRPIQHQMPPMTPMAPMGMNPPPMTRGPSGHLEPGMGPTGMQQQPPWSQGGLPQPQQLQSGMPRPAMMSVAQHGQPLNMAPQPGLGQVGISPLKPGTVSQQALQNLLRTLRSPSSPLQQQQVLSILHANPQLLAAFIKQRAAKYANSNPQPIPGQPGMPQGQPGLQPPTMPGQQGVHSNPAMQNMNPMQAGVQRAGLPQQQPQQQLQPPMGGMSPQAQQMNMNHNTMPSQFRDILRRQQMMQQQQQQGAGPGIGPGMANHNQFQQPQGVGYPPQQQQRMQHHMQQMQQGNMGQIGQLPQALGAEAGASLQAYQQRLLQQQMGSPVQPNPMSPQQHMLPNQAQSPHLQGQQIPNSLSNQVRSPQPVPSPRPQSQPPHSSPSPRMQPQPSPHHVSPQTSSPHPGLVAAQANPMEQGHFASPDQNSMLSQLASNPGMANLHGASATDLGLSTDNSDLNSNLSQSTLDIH
MYST3, sequence (Q92794 whole entry, species assumed): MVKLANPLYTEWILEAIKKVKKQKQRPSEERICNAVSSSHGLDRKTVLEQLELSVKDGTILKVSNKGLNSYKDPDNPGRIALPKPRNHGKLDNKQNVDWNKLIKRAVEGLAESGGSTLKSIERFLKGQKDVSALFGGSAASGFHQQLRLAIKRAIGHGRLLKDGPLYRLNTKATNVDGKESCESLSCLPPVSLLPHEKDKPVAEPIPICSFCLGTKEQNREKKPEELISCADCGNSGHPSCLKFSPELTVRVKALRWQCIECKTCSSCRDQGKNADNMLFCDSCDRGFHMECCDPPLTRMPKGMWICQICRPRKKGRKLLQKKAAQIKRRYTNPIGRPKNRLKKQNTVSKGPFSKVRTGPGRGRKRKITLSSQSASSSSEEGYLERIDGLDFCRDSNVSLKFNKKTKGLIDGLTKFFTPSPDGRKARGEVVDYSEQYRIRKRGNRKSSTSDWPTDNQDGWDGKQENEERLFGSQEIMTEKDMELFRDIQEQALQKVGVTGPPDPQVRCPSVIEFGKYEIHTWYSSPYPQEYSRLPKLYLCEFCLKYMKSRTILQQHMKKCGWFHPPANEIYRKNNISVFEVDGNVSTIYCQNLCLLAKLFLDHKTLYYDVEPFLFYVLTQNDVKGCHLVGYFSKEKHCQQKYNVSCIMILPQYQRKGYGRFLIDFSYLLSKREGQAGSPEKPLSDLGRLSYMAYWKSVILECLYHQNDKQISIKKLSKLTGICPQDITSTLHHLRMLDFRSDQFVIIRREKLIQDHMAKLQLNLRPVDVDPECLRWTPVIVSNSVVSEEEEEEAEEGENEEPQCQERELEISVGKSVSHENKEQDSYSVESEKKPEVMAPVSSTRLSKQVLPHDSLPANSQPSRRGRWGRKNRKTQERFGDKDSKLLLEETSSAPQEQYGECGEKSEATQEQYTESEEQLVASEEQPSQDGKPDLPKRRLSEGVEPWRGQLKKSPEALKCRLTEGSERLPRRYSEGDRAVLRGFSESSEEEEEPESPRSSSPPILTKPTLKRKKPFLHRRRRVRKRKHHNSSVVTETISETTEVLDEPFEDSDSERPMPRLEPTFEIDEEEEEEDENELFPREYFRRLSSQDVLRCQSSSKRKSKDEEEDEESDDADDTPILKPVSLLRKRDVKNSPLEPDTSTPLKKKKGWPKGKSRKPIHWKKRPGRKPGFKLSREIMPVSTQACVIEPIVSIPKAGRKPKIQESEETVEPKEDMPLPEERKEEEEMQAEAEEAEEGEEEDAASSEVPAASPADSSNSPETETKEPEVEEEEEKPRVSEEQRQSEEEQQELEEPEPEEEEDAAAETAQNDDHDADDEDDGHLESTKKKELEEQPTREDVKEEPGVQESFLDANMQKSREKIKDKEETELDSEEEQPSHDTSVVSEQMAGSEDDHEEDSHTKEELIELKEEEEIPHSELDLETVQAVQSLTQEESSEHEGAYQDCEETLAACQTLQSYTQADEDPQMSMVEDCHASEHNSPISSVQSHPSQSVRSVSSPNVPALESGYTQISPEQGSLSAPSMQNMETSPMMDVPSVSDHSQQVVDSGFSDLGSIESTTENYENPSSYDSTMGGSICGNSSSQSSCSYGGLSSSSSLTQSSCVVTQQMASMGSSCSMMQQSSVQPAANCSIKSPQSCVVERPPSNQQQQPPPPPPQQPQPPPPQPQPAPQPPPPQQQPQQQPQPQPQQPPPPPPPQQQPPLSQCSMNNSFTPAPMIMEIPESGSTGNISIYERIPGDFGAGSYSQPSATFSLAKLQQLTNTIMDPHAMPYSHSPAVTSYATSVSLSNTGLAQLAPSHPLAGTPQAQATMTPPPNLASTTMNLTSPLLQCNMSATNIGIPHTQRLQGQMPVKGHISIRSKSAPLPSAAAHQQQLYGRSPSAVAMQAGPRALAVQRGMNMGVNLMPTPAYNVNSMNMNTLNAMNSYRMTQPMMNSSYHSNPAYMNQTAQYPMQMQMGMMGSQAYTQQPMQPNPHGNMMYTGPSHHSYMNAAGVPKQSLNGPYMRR

SMILES: Cc1sc2c(c1C)C(c1ccc(Cl)cc1)=NC(CC(=O)OC(C)(C)C)c1nnc(C)n1-2 (centres unmarked) [JQ1]
- activity at 1 µM (HAT1): 98%
- activity at 10 µM (HAT1): 103%
- activity at 1 µM (MYST1): 99%
- activity at 10 µM (MYST1): 95%
- activity at 1 µM (MYST3): 108%
- activity at 10 µM (MYST3): 100%
- activity at 1 µM (EP300): 99%
- activity at 10 µM (EP300): 102%
- synergy with BAY-876 [1]: no significant synergistic effect
- anti-proliferative effect (confluency) (ten TNBC cell lines): strong anti-proliferative effects
- changes in gene-expression levels (C2C12 myoblast cells): significant changes in gene-expression levels
- activity at 1 µM (GCN5L2): 104%
- activity at 10 µM (GCN5L2): 98%
- combination effect with BAY-876 across the three cell lines (three TNBC lines): efficacy in only one of the three tested TNBC lines
